In PubChem BioAssay AID326 (DTP/NCI, 2004):
“And” between values parts separate entries of the source, which are not always exact repeats. Equal entries are not always repeated. Toxic doses and inconclusive results are not listed.

Tested on: CD2F1 mice, P388/DHAQ leukemia ip, median survival T/C
Assay: NCI In Vivo Anticancer Drug Screen. Data for tumor model P388 Leukemia resistant to Dihydroxy Anthracenedione; NSC 299195 (intraperitoneal) in CD2F1 (CDF1) mice
Conditions: endpoint: median survival time, higher = longer survival
Description: The antitumor activity of compounds was measured in mice bearing transplantable tumors. Survival or tumor size were measured and the results are expressed as the measurement made in the treated group (T) divided by the measurement made in the vehicle treated control group (C). The tumor model used in this assay is P388 Leukemia resistant to Dihydroxy Anthracenedione; NSC 299195 (intraperitoneal) in CD2F1 (CDF1) mice

[1] = dose: 7.78 mg/kg/injection, schedule: Q04DX003 (ip), vehicle: saline
[2] = dose: 13.0 mg/kg/injection, schedule: Q04DX003 (ip), vehicle: saline
[3] = dose: 36.0 mg/kg/injection, schedule: Q04DX003 (ip), vehicle: saline
[4] = dose: 4.32 mg/kg/injection, schedule: Q04DX003 (ip), vehicle: saline

SMILES: O=NN(CCCl)C(=O)NC1CCCCC1
- T/C (dose: 7.2 mg/kg/injection, schedule: Q04DX003 (ip), vehicle: saline + alcohol): 192 % of control
- T/C (dose: 12.0 mg/kg/injection, schedule: Q04DX003 (ip), vehicle: saline + alcohol): 337 % of control
- T/C (dose: 20.0 mg/kg/injection, schedule: Q04DX003 (ip), vehicle: saline + alcohol): 542 % of control
- T/C (dose: 33.3 mg/kg/injection, schedule: Q04DX003 (ip), vehicle: saline + alcohol): 202 % of control

SMILES: COc1cc([C@@H]2c3cc4c(cc3[C@@H](OC3OC5CO[C@@H](c6cccs6)OC5C(O)C3O)[C@H]3COC(=O)[C@H]23)OCO4)cc(OC)c1O (stereo partly specified)
- T/C (dose: 3.89 mg/kg/injection, schedule: Q04DX003 (ip), vehicle: clinical formulation): 114 % of control
- T/C (dose: 3.89 mg/kg/injection, schedule: Q04DX003 (ip), vehicle: saline): 118 % of control
- T/C (dose: 6.48 mg/kg/injection, schedule: Q04DX003 (ip), vehicle: clinical formulation): 121 % of control
- T/C [1]: 108 % of control
- T/C (dose: 10.8 mg/kg/injection, schedule: Q04DX003 (ip), vehicle: clinical formulation): 122 % of control
- T/C [2]: 108 % of control
- T/C (dose: 21.6 mg/kg/injection, schedule: Q04DX003 (ip), vehicle: saline): 111 % of control
- T/C [3]: 120 % of control

SMILES: O=C1c2c(O)ccc(O)c2C(=O)c2c(NCCNCCO)ccc(NCCNCCO)c21
- T/C (dose: 0.65 mg/kg/injection, schedule: Q04DX003 (ip), vehicle: saline): 112 % of control
- T/C (dose: 0.78 mg/kg/injection, schedule: Q04DX003 (ip), vehicle: saline): 119 % of control and 111 % of control
- T/C (dose: 1.08 mg/kg/injection, schedule: Q04DX003 (ip), vehicle: saline): 107 % of control
- T/C (dose: 1.3 mg/kg/injection, schedule: Q04DX002 (ip), vehicle: water): 112 % of control and 114 % of control and 100 % of control
- T/C (dose: 1.62 mg/kg/injection, schedule: Q04DX003 (ip), vehicle: saline): 104 % of control
- T/C (dose: 2.16 mg/kg/injection, schedule: Q04DX002 (ip), vehicle: water): 103 % of control and 120 % of control
- T/C (dose: 2.7 mg/kg/injection, schedule: Q04DX003 (ip), vehicle: saline): 119 % of control
- T/C (dose: 3.6 mg/kg/injection, schedule: Q04DX002 (ip), vehicle: water): 104 % of control and 105 % of control and 97 % of control
- T/C (dose: 4.0 mg/kg/injection, schedule: Q04DX002 (ip), vehicle: water): 100 % of control
- T/C (dose: 4.5 mg/kg/injection, schedule: Q04DX003 (ip), vehicle: saline): 124 % of control
- T/C (dose: 6.0 mg/kg/injection, schedule: Q04DX002 (ip), vehicle: water): 93 % of control and 96 % of control and 97 % of control
- T/C (dose: 6.67 mg/kg/injection, schedule: Q04DX002 (ip), vehicle: water): 106 % of control
- T/C (dose: 7.5 mg/kg/injection, schedule: Q04DX003 (ip), vehicle: saline): 120 % of control
- T/C (dose: 10.0 mg/kg/injection, schedule: Q04DX002 (ip), vehicle: water): 87 % of control and 88 % of control
- T/C (dose: 10.0 mg/kg/injection, schedule: Q04DX003 (ip), vehicle: saline): 109 % of control

SMILES: O=C(Nc1ccc(C2=NCCN2)cc1)c1ccc(C(=O)Nc2ccc(C3=NCCN3)cc2)c(Cl)c1
- T/C (dose: 16.2 mg/kg/injection, schedule: Q04DX003 (ip), vehicle: saline with Tween-80): 94 % of control
- T/C (dose: 27.0 mg/kg/injection, schedule: Q04DX003 (ip), vehicle: saline with Tween-80): 98 % of control
- T/C (dose: 45.0 mg/kg/injection, schedule: Q04DX003 (ip), vehicle: saline with Tween-80): 97 % of control

SMILES: COc1cc(NS(C)(=O)=O)ccc1Nc1c2ccccc2nc2ccccc12
- T/C (dose: 2.59 mg/kg/injection, schedule: Q04DX002 (ip), vehicle: other): 108 % of control and 114 % of control (2×)
- T/C (dose: 2.59 mg/kg/injection, schedule: Q04DX003 (ip), vehicle: saline): 107 % of control
- T/C [4]: 117 % of control

SMILES: N[C@@H](Cc1ccc(N(CCCl)CCCl)cc1)C(=O)O
- T/C (dose: 1.94 mg/kg/injection, schedule: Q04DX002 (ip), vehicle: saline): 114 % of control and 119 % of control and 120 % of control
- T/C (dose: 1.94 mg/kg/injection, schedule: Q04DX003 (ip), vehicle: saline): 106 % of control
- T/C (dose: 3.24 mg/kg/injection, schedule: Q04DX002 (ip), vehicle: saline): 117 % of control and 118 % of control
- T/C (dose: 3.24 mg/kg/injection, schedule: Q04DX003 (ip), vehicle: saline): 117 % of control
- T/C (dose: 9.0 mg/kg/injection, schedule: Q04DX002 (ip), vehicle: saline): 157 % of control and 160 % of control and 163 % of control
- T/C (dose: 9.0 mg/kg/injection, schedule: Q04DX003 (ip), vehicle: saline): 157 % of control
- T/C (dose: 15.0 mg/kg/injection, schedule: Q04DX002 (ip), vehicle: saline): 102 % of control and 118 % of control
- T/C (dose: 15.0 mg/kg/injection, schedule: Q04DX003 (ip), vehicle: saline): 152 % of control and 156 % of control

SMILES: CN(Cc1cnc2nc(N)nc(N)c2n1)c1ccc(C(=O)N[C@@H](CCC(=O)O)C(=O)O)cc1
- T/C (dose: 8.64 mg/kg/injection, schedule: Q04DX003 (ip), vehicle: sodium bicarbonate): 161 % of control and 192 % of control
- T/C (dose: 14.4 mg/kg/injection, schedule: Q04DX003 (ip), vehicle: sodium bicarbonate): 168 % of control and 195 % of control
- T/C (dose: 24.0 mg/kg/injection, schedule: Q04DX003 (ip), vehicle: sodium bicarbonate): 108 % of control and 214 % of control
- T/C (dose: 40.0 mg/kg/injection, schedule: Q04DX003 (ip), vehicle: sodium bicarbonate): 92 % of control

SMILES: O=c1[nH]cc(F)c(=O)[nH]1
- T/C [2]: 104 % of control
- T/C (dose: 60.0 mg/kg/injection, schedule: Q04DX003 (ip), vehicle: saline): 116 % of control and 226 % of control
- T/C (dose: 100.0 mg/kg/injection, schedule: Q04DX003 (ip), vehicle: saline): 109 % of control

SMILES: COC(=O)C[C@](O)(CCCC(C)(C)O)C(=O)O[C@@H]1C(OC)=C[C@]23CCCN2CCc2cc4c(cc2[C@H]13)OCO4
- T/C (dose: 3.0 mg/kg/injection, schedule: Q04DX003 (ip), vehicle: saline): 116 % of control
- T/C (dose: 3.33 mg/kg/injection, schedule: Q04DX003 (ip), vehicle: saline): 154 % of control

SMILES: O=C(Nc1ccc(C2=NCCCN2)cc1)c1ccc(C(=O)Nc2ccc(C3=NCCCN3)cc2)cc1
- T/C (dose: 4.32 mg/kg/injection, schedule: Q04DX003 (ip), vehicle: Klucel (hydroxypropylcellulose) (HPC)): 110 % of control
- T/C (dose: 6.48 mg/kg/injection, schedule: Q04DX003 (ip), vehicle: Klucel (hydroxypropylcellulose) (HPC)): 106 % of control
- T/C (dose: 7.2 mg/kg/injection, schedule: Q04DX003 (ip), vehicle: Klucel (hydroxypropylcellulose) (HPC)): 110 % of control
- T/C (dose: 10.8 mg/kg/injection, schedule: Q04DX003 (ip), vehicle: Klucel (hydroxypropylcellulose) (HPC)): 110 % of control and 119 % of control
- T/C (dose: 12.0 mg/kg/injection, schedule: Q04DX003 (ip), vehicle: Klucel (hydroxypropylcellulose) (HPC)): 112 % of control
- T/C (dose: 18.0 mg/kg/injection, schedule: Q04DX003 (ip), vehicle: Klucel (hydroxypropylcellulose) (HPC)): 107 % of control and 121 % of control
- T/C (dose: 20.0 mg/kg/injection, schedule: Q04DX003 (ip), vehicle: Klucel (hydroxypropylcellulose) (HPC)): 111 % of control
- T/C (dose: 30.0 mg/kg/injection, schedule: Q04DX003 (ip), vehicle: Klucel (hydroxypropylcellulose) (HPC)): 100 % of control
- T/C (dose: 50.0 mg/kg/injection, schedule: Q04DX003 (ip), vehicle: Klucel (hydroxypropylcellulose) (HPC)): 107 % of control

SMILES: CC[C@@]1(O)C[C@H](OC2CC(N(C)C)C(OC3CC(O)C(OC4CCC(=O)C(C)O4)C(C)O3)C(C)O2)c2c(cc3c(c2O)C(=O)c2c(O)cccc2C3=O)[C@H]1C(=O)OC (stereo partly specified)
- T/C [4]: 120 % of control
- T/C (dose: 12.0 mg/kg/injection, schedule: Q04DX003 (ip), vehicle: saline): 196 % of control

SMILES: CC[C@](O)(C(=O)O)c1cc2n(c(=O)c1CO)Cc1cc3ccccc3nc1-2
- T/C (dose: 6.48 mg/kg/injection, schedule: Q04DX003 (ip), vehicle: saline): 102 % of control and 117 % of control and 121 % of control
- T/C [1]: 121 % of control
- T/C (dose: 10.8 mg/kg/injection, schedule: Q04DX003 (ip), vehicle: saline): 115 % of control and 120 % of control
- T/C (dose: 18.0 mg/kg/injection, schedule: Q04DX003 (ip), vehicle: saline): 115 % of control
- T/C (dose: 30.0 mg/kg/injection, schedule: Q04DX003 (ip), vehicle: saline): 155 % of control
- T/C [3]: 164 % of control
- T/C (dose: 50.0 mg/kg/injection, schedule: Q04DX003 (ip), vehicle: saline): 180 % of control

SMILES: O=CC(NC(=O)N(CCCl)N=O)C(O)C(O)C(O)CO (stereo unspecified)
- T/C (dose: 7.2 mg/kg/injection, schedule: Q04DX002 (ip), vehicle: saline): 201 % of control
- T/C (dose: 12.0 mg/kg/injection, schedule: Q04DX002 (ip), vehicle: saline): 181 % of control
- T/C (dose: 20.0 mg/kg/injection, schedule: Q04DX002 (ip), vehicle: saline): 412 % of control
